The target in the assay is T1, MAPKAPK5 (PRAK) (Homo sapiens, UniProt Q8IW41).
T1 construct: purchased Thermo Fisher Scientific (Life Technologies) SelectScreen
Kind of assay: SelectScreen Z'LYTE. It counts as biochemical. Put shortly: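 Percent values come from Thermo SelectScreen profiling of NU5455, combining activity and binding assays. CSF1R was run in Z'LYTE format at Km app ATP, and CAMK1 in Adapta format with ATP listed at 10.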

Broadly, the inhibition is the relative decrease from the control value, in per cent.

The structures appear in SMILES notation.

T1 sequence (Q8IW41 whole entry): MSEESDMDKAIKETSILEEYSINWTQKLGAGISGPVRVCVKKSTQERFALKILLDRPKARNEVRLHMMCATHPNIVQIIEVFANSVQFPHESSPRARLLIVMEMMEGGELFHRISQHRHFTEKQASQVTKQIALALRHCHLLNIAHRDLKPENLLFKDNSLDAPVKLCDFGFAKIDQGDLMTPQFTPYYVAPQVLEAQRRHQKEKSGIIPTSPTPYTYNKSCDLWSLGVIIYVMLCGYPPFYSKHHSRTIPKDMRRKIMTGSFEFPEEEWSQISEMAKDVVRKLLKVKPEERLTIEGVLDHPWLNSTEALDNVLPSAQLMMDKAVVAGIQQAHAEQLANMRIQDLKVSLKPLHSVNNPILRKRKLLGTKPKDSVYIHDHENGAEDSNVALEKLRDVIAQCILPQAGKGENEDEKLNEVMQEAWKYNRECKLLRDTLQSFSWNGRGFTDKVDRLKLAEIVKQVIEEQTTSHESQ

In turn, `CN(C(=O)CN1CCOCC1)c1ccc2sc3c(-c4cccc5c(=O)cc(N6CC7CCC(C6)O7)oc45)cccc3c2c1` [NU5455] showed an inhibition at 1 µM of 0.6%.

The values are drawn from paper PMC6934184, “Selective DNA-PKcs inhibition extends the therapeutic index of localized radiotherapy and chemotherapy” (The Journal of Clinical Investigation, 2019).
